The values that follow come from PMC6677322, “Dafachronic acid promotes larval development in Haemonchus contortus by modulating dauer signalling and lipid metabolism” (PLoS Pathogens, 2019).

Molecules are shown by their SMILES.

For one test, the target named is Hc-DAF-12 (Haemonchus contortus, UniProt A0A650FMZ7). The test is described as follows: luciferase reporter assay in HEK293 cells transfected with Hc-DAF-12. In kind it is cell-based. (In a reporter assay the amount or activity of a reporter protein is the signal.)
Chain of Hc-DAF-12 (A0A650FMZ7 entry or part of it): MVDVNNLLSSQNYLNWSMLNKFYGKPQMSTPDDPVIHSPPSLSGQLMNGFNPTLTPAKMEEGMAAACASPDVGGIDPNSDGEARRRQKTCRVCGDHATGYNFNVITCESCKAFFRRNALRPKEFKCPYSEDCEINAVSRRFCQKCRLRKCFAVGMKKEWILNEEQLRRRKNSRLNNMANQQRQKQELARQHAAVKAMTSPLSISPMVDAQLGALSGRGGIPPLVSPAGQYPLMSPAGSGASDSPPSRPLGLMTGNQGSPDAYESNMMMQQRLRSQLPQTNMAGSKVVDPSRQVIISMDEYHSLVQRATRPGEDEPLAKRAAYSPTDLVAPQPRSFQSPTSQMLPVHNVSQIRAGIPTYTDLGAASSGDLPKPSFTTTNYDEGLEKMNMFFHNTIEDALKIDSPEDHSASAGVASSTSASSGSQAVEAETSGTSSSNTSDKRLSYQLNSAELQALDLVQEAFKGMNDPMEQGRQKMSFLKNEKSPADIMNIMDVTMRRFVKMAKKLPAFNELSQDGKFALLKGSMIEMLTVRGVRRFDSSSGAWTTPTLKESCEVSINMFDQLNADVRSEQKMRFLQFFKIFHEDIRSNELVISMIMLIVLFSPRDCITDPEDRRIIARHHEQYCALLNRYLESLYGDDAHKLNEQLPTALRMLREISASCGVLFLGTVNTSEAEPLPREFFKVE
The next test deals with T1, Ac-DAF-12 (Ancylostoma caninum, UniProt A0A368G7M4).
T1 construct: gene ANCCAN_15412
T1 sequence (A0A368G7M4 entry or part of it): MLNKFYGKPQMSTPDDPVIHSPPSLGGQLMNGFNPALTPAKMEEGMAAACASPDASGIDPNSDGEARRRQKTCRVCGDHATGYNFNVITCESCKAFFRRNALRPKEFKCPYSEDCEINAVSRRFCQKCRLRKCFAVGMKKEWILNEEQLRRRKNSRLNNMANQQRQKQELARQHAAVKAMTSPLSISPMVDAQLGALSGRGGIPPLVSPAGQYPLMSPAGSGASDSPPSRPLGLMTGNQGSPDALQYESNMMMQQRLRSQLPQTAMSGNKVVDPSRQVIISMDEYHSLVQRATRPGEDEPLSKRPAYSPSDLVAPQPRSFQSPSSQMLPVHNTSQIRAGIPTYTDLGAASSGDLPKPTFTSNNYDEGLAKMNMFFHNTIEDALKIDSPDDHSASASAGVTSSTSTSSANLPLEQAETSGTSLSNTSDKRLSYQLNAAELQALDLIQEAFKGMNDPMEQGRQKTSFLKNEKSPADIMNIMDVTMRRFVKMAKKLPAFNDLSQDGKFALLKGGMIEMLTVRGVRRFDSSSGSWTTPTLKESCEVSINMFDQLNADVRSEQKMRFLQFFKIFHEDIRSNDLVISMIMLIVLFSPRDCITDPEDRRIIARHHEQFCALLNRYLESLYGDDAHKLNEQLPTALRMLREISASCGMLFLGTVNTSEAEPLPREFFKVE
Description: luciferase reporter assay in HEK293 cells. In kind it is cell-based.

As to `C[C@H](CCC[C@H](C)C(=O)O)[C@H]1CC[C@H]2C3=CC[C@H]4CC(=O)CC[C@]4(C)[C@H]3CC[C@]12C` [(25S)-Δ7-DA], the EC50 on Hc-DAF-12 was determined as 12.5 nM; at Ac-DAF-12 it was 12.8 nM.

For orientation: EC50 means the concentration at which the effect is half-maximal. A low value points to an effect from little substance.
